# Key:
# HIV-RT = HIV-RT (Human immunodeficiency virus type 1 group M subtype B, UniProt P03366); assay: HIV-RT inhibition by AZT-TP, lavendamycin analogs and their combinations; type: biochemical; design: unit of the concentration uncertain; conditions: LA Conc. 0 (unit uncertain); for % inh. ave.: average of three trials
# Text: AZT-TP was used for these in vitro studies since AZT is naturally phosphorylated in vivo.
# The results of these tests are given in Table XVIII and XIX below, where the percent inhibition of HIV-RT activity is reported for three different trials and then averaged in the seventh column. […] .
# [1] = test system: K/1-NRKE tumor (ras^K-transformed NRKE cells); conditions: mouse, in vivo
# CNS Cancer cell lines = assay: NCI in vitro anticancer screen (SRB), CNS cancer subpanel; conditions: 48 hours exposure; average percent growth over the cell lines
# Experimental: (§1) Compounds chosen for the program are initially tested in an in vitro anticancer screen. A total of fifty-five human tumor cell lines, derived from nine cancer types (lung, colon, melanoma, renal, ovarian, brain, prostate, breast and leukemia), are used in this screen. The tumor cells are inoculated over a series of standard 96-well microtiter plates on day 0. These cells are then preincubated on the microtiter plates for 24 hours. The test compounds are added to the wells in five 10-fold dilutions starting from the highest soluble concentration. Each compound is tested against every cell line in the panel. The compounds are incubated for 48 hours with the tumor cell lines. At the termination of the assay, the cells are fixed in situ, washed, and dried. Sulforhodamine B (SRB), a pink anionic dye that binds to the basic amino acids of trichloroacetic acid-fixed cells, is added. The cells are washed again, and the remaining dye is a function of the adherent cell mass. The bound stain is solubilized and measured spectrophotometrically. The data are entered from automatic reading devices into a computer for subsequent storage and analysis.
# (§2) The measured effect of each test compound on the cell lines is calculated according to one or the other of the following two expressions:
# (§3) If (Mean ODtest−Mean ODtzero)□0, then PG=100×(Mean ODtest−Mean ODtzero)/(Mean ODctrl−Mean ODtzero);
# (§4) If (Mean ODtest−Mean ODtzero)<0, then PG=100×(Mean ODtest−Mean ODtzero)/Meantzero;
# (§5) First, a data sheet is provided which lists, for each cell line, the Mean ODtzero, the Mean ODctrl, the Mean ODtest for each of the five concentrations, the calculated PGs for each concentration, and the response parameters G150, TGI, and LC50.
# (§6) Third, mean graphs at each of the principal response parameters (GI50, TGI, and LC50) are provided. […] Since the bar scale is logarithmic, a bar two units to the right implies the compound achieved the response parameter (e.g., GI50) for the cell line at a concentration 1/100 the mean concentration required over all cell lines, and thus the cell line is unusually sensitive to that compound. Bars extending to the left correspondingly imply sensitivity less than the mean. Thus, the mean graphs facilitate visual scanning of data for potential patterns of selectivity for particular cell lines or for particular subpanels with respect to a selected response parameter.
# Renal Cancer cell lines = assay: NCI in vitro anticancer screen (SRB), renal cancer subpanel; conditions: 48 hours exposure; average percent growth over the cell lines
# Experimental: as §1, §2, §3, §4, §5, §6
# Leukemia cell lines = assay: NCI in vitro anticancer screen (SRB), leukemia subpanel; conditions: 48 hours exposure; average percent growth over the cell lines
# Experimental: as §1, §2, §3, §4, §5, §6
# [2] = test system: K/1 = ras^K Transformed NRKE Cells; conditions: K/1 = ras^K transformed NRKE cells, compared with normal NRKE cells
# [3] = test system: H/1.2 = ras^H Transformed NRKE Cells; conditions: H/1.2 = ras^H transformed NRKE cells, compared with normal NRKE cells
# [4] = test system: 3LL = Lewis Lung Carcinoma Cells; conditions: 3LL = Lewis lung carcinoma cells, compared with normal NRKE cells
# [5] = test system: N/4.2-NRKE transformed by the human ras^N gene; conditions: N/4.2 = ras^N transformed NRK cells, compared with normal NRKE cells
# [6] = test system: Non-Small Cell Lung Cancer cell lines; assay: NCI in vitro anticancer screen (SRB), non-small cell lung cancer subpanel; conditions: 48 hours exposure; average percent growth over the cell lines
# Experimental: as §1, §2, §3, §4, §5, §6
# Breast Cancer cell lines = assay: NCI in vitro anticancer screen (SRB), breast cancer subpanel; conditions: 48 hours exposure; average percent growth over the cell lines
# Experimental: as §1, §2, §3, §4
# [7] = test system: Prostate Cancer cell lines; assay: NCI in vitro anticancer screen (SRB), prostate cancer subpanel; conditions: 48 hours exposure; average percent growth over the cell lines
# Experimental: as §1, §2, §3, §4
# Melanoma cell lines = assay: NCI in vitro anticancer screen (SRB), melanoma subpanel; conditions: 48 hours exposure; average percent growth over the cell lines
# Experimental: as §1, §2, §3, §4, §5, §6
# [8] = test system: Ovarian Cancer cell lines; assay: NCI in vitro anticancer screen (SRB), ovarian cancer subpanel; conditions: 48 hours exposure; average percent growth over the cell lines
# Experimental: as §1, §2, §3, §4
# Colon Cancer cell lines = assay: NCI in vitro anticancer screen (SRB), colon cancer subpanel; conditions: 48 hours exposure; average percent growth over the cell lines
# Experimental: as §1, §2, §3, §4
# [9] = AZT-TP Conc. 0.01 (unit uncertain)
# [10] = AZT-TP Conc. 0.05 (unit uncertain)
SMILES,Differential Index K/1 [2],Differential Index H/1.2 [3],Differential Index 3LL [4],Differential Index N/4.2 [5],also measured
"Cc1cn([C@H]2C[C@H](N=[N+]=[N-])[C@@H](COP(=O)(O)OP(=O)(O)OP(=O)(O)O)O2)c(=O)[nH]c1=O [AZT-TP, 3′-azido-3′-deoxythymidine 5′-triphosphate, reference compound]",,,,,% inh. Trial 1 (HIV-RT; [9]): 27%; % inh. Trial 2 (HIV-RT; [9]): 27%; % inh. Trial 3 (HIV-RT; [9]): 29%; % inh. ave. (HIV-RT; [9]): 27.7%; % inh. Trial 1 (HIV-RT; [10]): 51%; % inh. Trial 2 (HIV-RT; [10]): 52%; % inh. Trial 3 (HIV-RT; [10]): 49%; % inh. ave. (HIV-RT; [10]): 50.7%
"O=P1(N(CCCl)CCCl)NCCCO1 (centres unmarked) [CY, cyclophosphamide, reference compound]",,,,,"Number Dead Number Treated ([1]; female, CD1 nu/nu): 0/7; Percent Wt. Change (g) [1]: −3.0 ″ 0.09 g"
CC(=O)NC1=CC(=O)c2ccc(-c3nc(C(=O)O)cc4c3[nH]c3ccccc34)nc2C1=O [Compound 2],2.14,1.36,0.38,1.50,Activity (Average PG for highest dose tested) CNS Cancer (CNS Cancer cell lines): −26.6%; Activity (Average PG for highest dose tested) Renal Cancer (Renal Cancer cell lines): −74.6%; Activity (Average PG for highest dose tested) Leukemia (Leukemia cell lines): −34.7%; Activity (Average PG for highest dose tested) Non-Small Cell Lung Cancer [6]: −27.9%; Activity (Average PG for highest dose tested) Breast Cancer (Breast Cancer cell lines): −32.6%; Activity (Average PG for highest dose tested) Prostate Cancer [7]: −45.5%; Activity (Average PG for highest dose tested) Melanoma (Melanoma cell lines): −53.7%; Activity (Average PG for highest dose tested) Ovarian Cancer [8]: −62.7%; Activity (Average PG for highest dose tested) Colon Cancer (Colon Cancer cell lines): −43.6%
CCCCOC(=O)c1cc2c([nH]c3ccc(OC)cc32)c(-c2ccc3c(n2)C(=O)C(NC(C)=O)=CC3=O)n1 [Compound 4],1.14,1.19,<0.75,1.14,
CCCCOC(=O)c1cc2c([nH]c3ccc(F)cc32)c(-c2ccc3c(n2)C(=O)C(NC(C)=O)=CC3=O)n1 [Compound 5],1.88,0.88,0.29,0.74,
CC(=O)NC1=CC(=O)c2ccc(-c3nccc4c3[nH]c3ccccc34)nc2C1=O [Compound 6],0.91,1.00,0.13,0.82,
"COC(=O)c1nc(-c2ccc3c(n2)C(=O)C(NC(=O)CCl)=CC3=O)c2[nH]c3ccccc3c2c1C [Compound 7, 7-N-CHLOROACETYLLAVENDAMYCIN METHYL ESTER]",0.73,1.00,0.29,0.76,
"CC(C)CCOC(=O)c1cc2c([nH]c3ccccc32)c(-c2ccc3c(n2)C(=O)C(NC(=O)CCl)=CC3=O)n1 [Compound 9, 7-N-CHLOROACETYLDEMETHYLLAVENDAMYCIN ISOAMYL ESTER]",2.41,1.02,0.42,1.13,
"CCCCCCCCOC(=O)c1cc2c([nH]c3ccccc32)c(-c2ccc3c(n2)C(=O)C(NC(=O)CCl)=CC3=O)n1 [Compound 10, 7-N-CHLOROACETYLDEMETHYLLAVENDAMYCIN OCTYL ESTER]",>2.2,i1.0,i1.0,i1.0,
"CCCC(=O)NC1=CC(=O)c2ccc(-c3nc(C(=O)OC)c(C)c4c3[nH]c3ccccc34)nc2C1=O [Compound 11, 7-N-BUTYRYLLAVENDAMYCIN METHYL ESTER]",0.97,0.80,0.39,0.76,
CCCCOC(=O)c1cc2c([nH]c3ccccc32)c(-c2ccc3c(n2)C(=O)C(NC(=O)CCC)=CC3=O)n1 [Compound 12],1.32,1.61,0.29,0.94,
"CCCC(=O)NC1=CC(=O)c2ccc(-c3nc(C(=O)OCCC(C)C)cc4c3[nH]c3ccccc34)nc2C1=O [Compound 13, 7-N-BUTYRYLDEMETHYLLAVENDAMYCIN ISOAMYL ESTER]",1.67,2.70,0.42,1.53,
"CCCCCCCCOC(=O)c1cc2c([nH]c3ccccc32)c(-c2ccc3c(n2)C(=O)C(NC(=O)CCC)=CC3=O)n1 [Compound 14, 7-N-BUTYRYLDEMETHYLLAVENDAMYCIN OCTYL ESTER]",>10.0,>2.06,>2.06,>2.2,
CCCCOC(=O)c1cc2c([nH]c3ccccc32)c(-c2ccc3c(n2)C(=O)C(NC(=O)C(C)C)=CC3=O)n1 [Compound 15],2.25,1.48,1.00,1.80,
CC(C)C(=O)NC1=CC(=O)c2ccc(C=O)nc2C1=O [Compound 25],>1.5,˜1.0,>3.3,˜1.0,
Cc1ccc2c(n1)C(=O)C(NC(=O)C(C)C)=CC2=O [Compound 29],0.2,1.03,2.1,1.3,
"CCCCCCCCOC(=O)c1cc2c([nH]c3ccccc32)c(-c2ccc3c(n2)C(=O)C(NC=O)=CC3=O)n1 [Compound 56, 7-N-formyldemethyllavendamycin octyl ester]",>1.57,i1.00,>1.03,>1.5,Activity (Average PG for highest dose tested) CNS Cancer (CNS Cancer cell lines): −36.8%; Activity (Average PG for highest dose tested) Renal Cancer (Renal Cancer cell lines): −51.3%; Activity (Average PG for highest dose tested) Leukemia (Leukemia cell lines): −29.7%; Activity (Average PG for highest dose tested) Non-Small Cell Lung Cancer [6]: −28.8%; Activity (Average PG for highest dose tested) Breast Cancer (Breast Cancer cell lines): −42.3%; Activity (Average PG for highest dose tested) Prostate Cancer [7]: +14.0%; Activity (Average PG for highest dose tested) Melanoma (Melanoma cell lines): −39.9%; Activity (Average PG for highest dose tested) Ovarian Cancer [8]: −57.3%; Activity (Average PG for highest dose tested) Colon Cancer (Colon Cancer cell lines): −30.0%
"CCCCCCCCOC(=O)c1cc2c([nH]c3ccccc32)c(-c2ccc3c(n2)C(=O)C(N)=CC3=O)n1 [Compound 57, demethyllavendamycin octyl ester]",,,,,Activity (Average PG for highest dose tested) CNS Cancer (CNS Cancer cell lines): +81.0%; Activity (Average PG for highest dose tested) Renal Cancer (Renal Cancer cell lines): +68.7%; Activity (Average PG for highest dose tested) Leukemia (Leukemia cell lines): +90.8%; Activity (Average PG for highest dose tested) Non-Small Cell Lung Cancer [6]: +89.8%; Activity (Average PG for highest dose tested) Breast Cancer (Breast Cancer cell lines): +96.0%; Activity (Average PG for highest dose tested) Prostate Cancer [7]: +94.5%; Activity (Average PG for highest dose tested) Melanoma (Melanoma cell lines): +89.4%; Activity (Average PG for highest dose tested) Ovarian Cancer [8]: +89.3%; Activity (Average PG for highest dose tested) Colon Cancer (Colon Cancer cell lines): +100.3%
"Cc1ccc2c(n1)C(=O)C(N)=C(Cl)C2=O [Compound 59, 7-Amino-6-Chloro-2-Methylquinoline-5,8-Dione]",1.25,1.25,0.63,1.14,

# Source: US6444684B1 (priority 1993, dated 2002)
